Each structure is given as a SMILES string.

Test [1] deals with T1, HPK1 (Homo sapiens, UniProt Q92918).
T1 sequence (Q92918 1-346 limits assumed): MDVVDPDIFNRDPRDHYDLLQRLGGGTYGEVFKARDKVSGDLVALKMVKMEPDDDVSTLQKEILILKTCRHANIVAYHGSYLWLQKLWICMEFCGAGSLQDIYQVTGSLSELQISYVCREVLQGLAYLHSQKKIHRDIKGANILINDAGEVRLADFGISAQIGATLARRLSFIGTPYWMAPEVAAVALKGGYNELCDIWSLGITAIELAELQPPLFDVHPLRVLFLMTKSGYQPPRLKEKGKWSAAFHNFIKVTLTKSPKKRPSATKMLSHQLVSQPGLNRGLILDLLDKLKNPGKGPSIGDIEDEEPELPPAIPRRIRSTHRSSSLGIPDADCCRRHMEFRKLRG
The test is described as follows: HPK1 kinase activity assay (ADP-Glo). The note with it: HPK1 Kinase activity IC50 (nM), 1 nM HPK1, 10 μM ATP, 0.1 μg/μL MBP. On the technique in general: ADP-Glo turns the ADP formed in a reaction into a luminescent signal.
Method: Preparation of buffer: 1× reaction buffer (40 mM Tris-HCl, 20 mM MgCl2, 0.01% Brij35, 50 μM DTT, 0.1 mg/ml BSA) was prepared using sterile water, which was prepared and used on the day of the experiment.
Preparation of 1000× drug stock plate: a 1000× compound stock plate was prepared. […] The compound stock plate was sealed with a sealing film and stored in a −20° C. refrigerator for later use.
Compound preparation and dosing: the 1000× drug stock plate was taken and melted at room temperature in the dark. Then 5× drug intermediate plate was prepared using reaction buffer and mixed well. 2 μL was transferred from the 5× drug intermediate plate into a 384-well plate, and negative control well and positive control well (in which 2 μL reaction buffer containing 0.5% DMSO was added) were set. Each point was repeated twice.
Preparation and incubation of reaction mixture: HPK1 protein was diluted to a 2.5× working solution with reaction buffer. 4 μL 2.5×HPK1 protein was added to each well containing test compound and positive control well, and 4 μL of reaction buffer without HPK1 protein was added to the negative control well. The obtained mixture was centrifuged at 1000 rpm for 1 min and then incubated in a 20° C. incubator for 15 min. A 2.5× mixed working solution of MBP protein and ATP was prepared with reaction buffer at concentrations of 0.5 μg/μL and 50 PM, respectively. 4 μL of the mixed working solution of MBP and ATP was added to each well, centrifuged at 1000 rpm for 1 min, and then incubated in a 20° C. incubator for 90 min.
ADP-Glo detection and reading plate: 10 μl ADP-Glo was added to each well of the test plate. The resulting mixture was centrifuged at 1000 rpm for 1 min and incubated in a 20° C. incubator for 60 min. Then 10 μL of the final incubation solution was transferred from the test plate to a new 384-well plate. 10 μL of kinase detection reagent was added to each well, centrifuged at 400 g for 1 min, and incubated in a 20° C. incubator for 60 min. Chemiluminescent signals were read by a microplate reader.

Test [2] concerns the target HPK1 (Homo sapiens, UniProt Q92918). In words: SLP76 phosphorylation assay (intracellular HPK1 inhibitory activity, p-SLP76 Ser376 sandwich ELISA). To be noted: p-SLP76 IC50(nM), Jurkat, Clone E6-1 cells; 1 h compound pre-incubation, anti-CD3 beads stimulation 20 min; SLP76 phosphorylation at S376.
Target sequence in this assay (Q92918 whole entry): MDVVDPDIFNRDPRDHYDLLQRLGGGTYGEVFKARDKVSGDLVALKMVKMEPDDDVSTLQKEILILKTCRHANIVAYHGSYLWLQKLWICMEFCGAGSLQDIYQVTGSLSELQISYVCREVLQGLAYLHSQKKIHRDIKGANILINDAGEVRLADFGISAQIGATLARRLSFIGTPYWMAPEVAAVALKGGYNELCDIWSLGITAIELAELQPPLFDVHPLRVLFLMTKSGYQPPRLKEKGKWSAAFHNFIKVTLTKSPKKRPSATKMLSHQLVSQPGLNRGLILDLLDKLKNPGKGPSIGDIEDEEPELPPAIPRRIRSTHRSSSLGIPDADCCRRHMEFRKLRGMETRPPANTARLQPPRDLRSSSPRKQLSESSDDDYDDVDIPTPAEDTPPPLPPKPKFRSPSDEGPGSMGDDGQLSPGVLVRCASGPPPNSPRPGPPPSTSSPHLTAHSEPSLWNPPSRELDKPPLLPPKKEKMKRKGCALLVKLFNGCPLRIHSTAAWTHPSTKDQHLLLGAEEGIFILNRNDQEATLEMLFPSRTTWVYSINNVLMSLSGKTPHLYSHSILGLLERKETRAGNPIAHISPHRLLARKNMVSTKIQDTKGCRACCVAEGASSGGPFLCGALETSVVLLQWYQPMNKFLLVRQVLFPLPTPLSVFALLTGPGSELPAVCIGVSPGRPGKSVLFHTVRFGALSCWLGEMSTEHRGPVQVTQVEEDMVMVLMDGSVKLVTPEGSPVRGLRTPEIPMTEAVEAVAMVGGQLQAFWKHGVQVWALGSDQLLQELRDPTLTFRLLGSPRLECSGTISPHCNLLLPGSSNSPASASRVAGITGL

On to `Cc1c[nH]c2ncc(-c3cc4c(c(CN(C)C)c3)C(=O)N(C)CC4)cc12` [Compound Z186, 8-((dimethylamino)methyl)-2-methyl-6-(3-methyl-1H-pyrrolo[2,3-b]pyridin-5-yl)-3,4-dihydroisoquinolin-1(2H)-one], for which the IC50 (commonly the concentration that inhibits the measured activity by half) came out at 34.2 nM on HPK1 [1] and 3760 nM on HPK1 [2].

Turning to `Cc1c[nH]c2ncc(-c3cc4c(c([C@@H]5CCCN5)c3)CN(C(=O)[C@@H](O)c3ccccc3)CC4)cc12` [Compound Z290, (S)-2-hydroxy-1-(6-(3-methyl-1H-pyrrolo[2,3-b]pyridin-5-yl)-8-((S)-pyrrolidin-2-yl)-3,4-dihydroisoquinolin-2(1H)-yl)-2-acetophenone], the values for the IC50 on HPK1 [1] and at HPK1 [2] were 0.77 nM and 272 nM, respectively.

On to `Cc1c[nH]c2ncc(-c3cc4c(c([C@@H]5CCCN5)c3)CN(C(=O)C3CCOCC3)CC4)cc12` [Compound Z127], for which the IC50 against HPK1 [1] stood at 0.58 nM; at HPK1 [2], 204 nM.

Regarding `Cc1c[nH]c2ncc(-c3cc4c(c([C@@H]5CCCN5)c3)CN(C(=O)N3CCO[C@@H](C)C3)CC4)cc12` [Compound Z359-1, (6-(3-methyl-1H-pyrrolo[2,3-b]pyridin-5-yl)-8-((S)-pyrrolidin-2-yl)-3,4-dihydroisoquinolin-2(1H)-yl) ((S)-2-methylmorpholin)methanone], the IC50 against HPK1 [1] came to 0.27 nM; against HPK1 [2], 135 nM.

Consider `Cc1c[nH]c2ncc(-c3cc4c(c(CN5CC6CCC(C5)N6C)c3)COCC4)cc12` [Compound Z113, 3-methyl-5-(8-((8-methyl-3,8-diazabicyclo[3.2.1]octan-3-yl)methyl)isochroman-6-yl)-1H-pyrrolo[2,3-b]pyridine], for which the IC50 came to 62.2 nM against HPK1 [1] and 10000 nM on HPK1 [2].

As to `Cc1c[nH]c2ncc(-c3cc4c(c([C@@H]5CCCN5)c3)CN(C(=O)c3cccnc3)CC4)cc12` [Compound Z210, (S)-1-(6-(3-methyl-1H-pyrrolo[2,3-b]pyridin-5-yl)-8-(pyrrolidin-2-yl)-3,4-dihydroisoquinolin-2(1H)-yl)(pyridin-3-yl)methanone], the IC50 against HPK1 [1] worked out at 0.62 nM; on HPK1 [2], 227 nM.

Consider `Cc1c[nH]c2ncc(-c3cc4c(c([C@@H]5CCCN5)c3)CCOC4)cc12` [Compound Z75-1], for which the IC50 on HPK1 [1] was 1.7 nM; on HPK1 [2], 475 nM.

Regarding `Cc1c[nH]c2ncc(-c3cc4c(c([C@@H]5CCCN5)c3)CN(S(=O)(=O)C3CC3)CC4)cc12` [Compound Z251, (S)-2-(cyclopropylsulfonyl)-6-(3-methyl-1H-pyrrolo[2,3-b]pyridin-5-yl)-8-(pyrrolidin-2-yl)-1,2,3,4-tetrahydroisoquinoline], the IC50 against HPK1 [1] came out at 0.49 nM; against HPK1 [2], 131 nM.

For the molecule `Cc1c[nH]c2ncc(-c3cc4c(c([C@@H]5CCCN5)c3)CN(C(=O)c3cn(C(C)C)nc3C(F)(F)F)CC4)cc12` [Compound Z348, (S)-[1-isopropyl-3-(trifluoromethyl)-1H-pyrazol-4-yl]-[6-(3-methyl-1H-pyrrolo[2,3-b]pyridin-5-yl)-8-[pyrrolidin-2-yl]-3,4-dihydroisoquinolin-2(1H)-yl]methanone], the IC50 against HPK1 [1] came out at 0.75 nM; at HPK1 [2], 183 nM.

On to `CO[C@@H]1CCN(C(=O)N2CCc3cc(-c4cnc5[nH]cc(C)c5c4)cc([C@@H]4CCCN4)c3C2)C1` [Compound Z357-2, ((R)-3-methoxypyrrolidin-1-yl)(6-(3-methyl-1H-pyrrolo[2,3-b]pyridin-5-yl)-8-((S)-pyrrolidin-2-yl)-3,4-dihydroisoquinolin-2(1H)-yl)methanone], for which the half-maximal inhibitory concentration (IC50) at HPK1 [1] is 0.26 nM; at HPK1 [2], 80.7 nM.

For `Cc1c[nH]c2ncc(-c3cc4c(c([C@@H]5CCCN5)c3)CN(C(=O)c3ccnc(C(C)(C)O)c3)CC4)cc12` [Compound Z327, (S)-(2-(2-hydroxypropan-2-yl)pyridin-4-yl)(6-(3-methyl-1H-pyrrolo[2,3-b]pyridin-5-yl)-8-(pyrrolidin-2-yl)-3,4-dihydroisoquinolin-2(1H)-yl)methanone], the IC50 against HPK1 [1] was determined as 0.33 nM; on HPK1 [2] it was 150 nM.

On to `Cc1c[nH]c2ncc(-c3cc4c(c([C@@H]5CCCN5)c3)CCN(C(=O)C(C)(C)O)C4)cc12` [Compound Z301, (S)-2-hydroxy-2-methyl-1-(7-(3-methyl-11H-pyrrolo[2,3-b]pyridin-5-yl)-5-(pyrrolidin-2-yl)-3,4-dihydroisoquinolin-2(1H)-yl)propan-1-one], for which the concentration for half-maximal inhibition (IC50) is 0.61 nM at HPK1 [1] and 254 nM on HPK1 [2].

Consider `Cc1c[nH]c2ncc(-c3cc4c(c(C5COCCN5)c3)CN(C(=O)[C@](C)(O)C(F)(F)F)CC4)cc12` (stereo partly drawn) [Compound Z296, (2S)-3,3,3-trifluoro-2-hydroxy-2-methyl-1-(6-(3-methyl-1H-pyrrolo[2,3-b]pyridin-5-yl)-8-(morpholin-3-yl)-3,4-dihydroisoquinolin-2(1H)-yl)propan-1-one], for which the figures for the concentration for half-maximal inhibition (IC50) against HPK1 [1] and on HPK1 [2] were 0.86 nM and 223 nM, respectively.

For `N#Cc1c[nH]c2ncc(-c3cc4c(c([C@@H]5CCCN5)c3)COCC4)cc12` [Compound Z190, (S)-5-(8-(pyrrolidin-2-yl)isochroman-6-yl)-1H-pyrrolo[2,3-b]pyridine-3-carbonitrile], the half-maximal inhibitory concentration (IC50) at HPK1 [1] was found to be 1.89 nM; against HPK1 [2] it was 494 nM.

Consider `CC(C)c1c[nH]c2ncc(-c3cc4c(c([C@@H]5COCCN5)c3)CN(C(=O)C3(O)CC3)CC4)cc12` [Compound Z433, (R)-(1-hydroxycyclopropyl)(6-(3-isopropyl-1H-pyrrolo[2,3-b]pyridin-5-yl)-8-(morpholin-3-yl)-3,4-dihydroisoquinolin-2(1H)-yl)methanone], for which the 50% inhibitory concentration (IC50) was found to be 0.22 nM against HPK1 [1] and 111 nM at HPK1 [2].

On to `Cc1c[nH]c2ncc(-c3cc4c(c([C@@H]5CCCN5)c3)CN(C(=O)N3CCOC(C)(C)C3)CC4)cc12` [Compound Z362, (S)-(2,2-dimethylmorpholine)(6-(3-methyl-1H-pyrrolo[2,3-b]pyridin-5-yl)-8-(pyrrolidin-2-yl)-3,4-dihydroisoquinolin-2(1H)-yl)methanone], for which the results for the IC50 on HPK1 [1] and at HPK1 [2] were 0.22 nM and 92.9 nM, respectively.

In the case of `COC(=O)N1CCc2cc(-c3cnc4[nH]cc(C)c4c3)cc([C@@H]3CCCN3)c2C1` [Compound Z34-1], the results for the IC50 at HPK1 [1] and against HPK1 [2] were 0.55 nM and 265 nM, respectively.

For the molecule `Cc1c[nH]c2ncc(-c3cc4c(c([C@@H]5CCCN5)c3)CN(C(=O)c3ccncc3)CC4)cc12` [Compound Z124, (S)-(6-(3-methyl-1H-pyrrolo[2,3-b]pyridin-5-yl)-8-(pyrrolidin-2-yl)-3,4-dihydroisoquinolin-2(1H)-yl) (pyridin-4-yl)methanone], the IC50 on HPK1 [1] is 0.33 nM; against HPK1 [2] it was 260 nM.

(Values after patent US20240182465A1 (GENFLEET THERAPEUTICS (SHANGHAI) INC., priority 2021, published 2024).)
